This passage reports inhibition and Activity results from ChEMBL document CHEMBL2074327, “hPepT1-mediated epithelial transport of bacteria-derived chemotactic peptides enhances neutrophil-epithelial interactions” (J Clin Invest, 1998).

Common to all, as to assay type: functional, cell-based
The target of assay [1] is T1, Solute carrier family 15 member 1 (Homo sapiens) (UniProt P46059).
T1 sequence (whole entry): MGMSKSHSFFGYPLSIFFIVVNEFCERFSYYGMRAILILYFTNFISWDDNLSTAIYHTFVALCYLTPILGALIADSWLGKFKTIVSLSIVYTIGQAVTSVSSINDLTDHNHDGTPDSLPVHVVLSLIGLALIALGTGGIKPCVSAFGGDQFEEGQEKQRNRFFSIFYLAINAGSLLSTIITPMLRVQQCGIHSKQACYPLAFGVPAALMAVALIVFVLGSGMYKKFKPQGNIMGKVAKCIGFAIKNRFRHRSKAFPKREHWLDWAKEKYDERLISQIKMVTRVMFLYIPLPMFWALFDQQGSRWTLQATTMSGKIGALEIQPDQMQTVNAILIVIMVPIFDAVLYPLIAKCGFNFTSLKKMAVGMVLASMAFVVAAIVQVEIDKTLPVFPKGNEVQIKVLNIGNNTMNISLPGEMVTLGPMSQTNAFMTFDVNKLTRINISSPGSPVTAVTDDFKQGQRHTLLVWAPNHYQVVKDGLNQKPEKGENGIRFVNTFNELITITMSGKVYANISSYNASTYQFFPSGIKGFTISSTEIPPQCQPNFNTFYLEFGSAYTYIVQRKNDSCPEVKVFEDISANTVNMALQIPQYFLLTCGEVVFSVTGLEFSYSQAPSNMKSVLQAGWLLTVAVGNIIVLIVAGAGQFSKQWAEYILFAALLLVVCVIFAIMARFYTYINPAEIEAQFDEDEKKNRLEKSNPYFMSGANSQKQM
Nature of the assay: TP_TRANSPORTER: inhibition of Gly-Sar uptake (Gly-Sar: 100 uM, fMLP: 1000 uM) in Xenopus laevis oocytes. To be noted: Oocyte.

The target in assay [2] is T1, Solute carrier family 15 member 1 (Homo sapiens). Nature of the assay: TP_TRANSPORTER: uptake in Xenopus laevis oocytes. To be noted: Oocyte.
For assay [3] the target is unchanged. Nature of the assay: TP_TRANSPORTER: inhibition of fMLP uptake (fMLP: 0.1 uM, Carnosine: 10000 uM) in Caco-2 cells.
The target is the same in assay [4]. Nature of the assay: TP_TRANSPORTER: inhibition of fMLP uptake (fMLP: 0.1 uM, Gly-Pro: 10000 uM) in Caco-2 cells.
For assay [5] the target is unchanged. Nature of the assay: TP_TRANSPORTER: inhibition of fMLP uptake (fMLP: 0.1 uM, Gly-Leu: 10000 uM) in Caco-2 cells.
The target is the same in assay [6]. The assay can be described thus: TP_TRANSPORTER: inhibition of fMLP uptake (fMLP: 0.12 uM, Gly-Leu: 10000 uM) in Xenopus laevis oocytes. To be noted: Oocyte.

Peptide text beside a SMILES is read from it.

Broadly, the inhibition is the relative decrease from the control value, in per cent. In the case of `CSCC[C@H](NC=O)C(=O)N[C@@H](CC(C)C)C(=O)N[C@@H](Cc1ccccc1)C(=O)O`, the inhibition in assay [1] is 88%. Also, the Activity result in assay [2] was “substrate [+]”.
With `NCCC(=O)N[C@@H](Cc1c[nH]cn1)C(=O)O`, the inhibition in assay [3] was 93%.
Consider `NCC(=O)N1CCC[C@H]1C(=O)O` (H-Gly-Pro-OH), for which the inhibition in assay [4] was 78%.
In the case of `CC(C)C[C@H](NC(=O)CN)C(=O)O`, the inhibition in assay [5] is 93%. The Activity result in assay [6] is “inhibitor [+]”.
